Reference: patent US9796662B2 (priority 2010, dated 2017)

| SMILES | Emulsion stability, mL separation, 1 h, Adjuvant [mL] | Emulsion stability, mL separation, 1 h, Anionic [mL] | Emulsion stability, mL separation, 1 h, Nonionic [mL] | Emulsion stability, mL separation, 24 h, Adjuvant [mL] | Emulsion stability, mL separation, 24 h, Anionic [mL] | Emulsion stability, mL separation, 24 h, Nonionic [mL] |
| --- | --- | --- | --- | --- | --- | --- |
| C=CCCCCCCCC(=O)OCC[N+](C)(C)C [C10-7, C10 DMEA Ester Quat] | 0 | 0 | 0 | 0 | 0 | 0 |
| CC/C=C/CCCCCCCC(=O)OCC[N+](C)(C)C [C12-7, C12 DMEA Ester Quat] | 0 | 0 | 0 | 0 | 0 | 0 |
| C[N+](C)(C)CCOC(=O)CCCCCCC/C=C/CCCCCCCC(=O)OCC[N+](C)(C)C [Mix-16, C18 diMEA DiQuat] | 0.25 | 0 | – | 0.25 | 0 | – |
